The text below walks through data of ChEMBL document CHEMBL1148205, “Strongylophorine-26, a new meroditerpenoid isolated from the marine sponge Petrosia (Strongylophora) corticata that exhibits anti-invasion activity” (J Nat Prod, 2004).

Common to all, as to type: functional, cell-based
Test [1] deals with MDA-MB-231. Kind of test: Inhibition of human MDA-MB-231 cells invasion by Matrigel cell invasion assay.
The subject of test [2] is MDA-MB-231. Kind of test: Inhibition of human MDA-MB-231 cells invasion at <50 ug/mL by Matrigel cell invasion assay.
The test system of test [3] is MDA-MB-231. Kind of test: Inhibition of human MDA-MB-231 cells invasion at 2.5 ug/mL by Matrigel cell invasion assay.

Converted amounts (≈) assume the structure as drawn. The source made the active and inactive calls. The rule behind the calls is not given here.

As to `C[C@@]12CC[C@@H]3[C@]4(CCC[C@]3(C)C(=O)OC4)[C@H]1CC[C@](C)(O)[C@H]2CC1=CC(=O)C=CC1=O`, the IC50 (in general, the point on the concentration scale where inhibition reaches its midpoint) in the test with MDA-MB-231 [1] stood at 7 µg/mL (≈ 16.4 µM). Consider `C=C1CCC[C@H]2[C@](C)(CC3=C(O)C(=O)C=C(OC)C3=O)[C@@H](C)CC[C@]12C`, for which the result in the test with MDA-MB-231 [2] was inactive. As for `NCCCNCCCN1CCCC/C=C\CCCCCCCC1` [MOTUPORAMINE C], the 50% inhibitory concentration (IC50) with MDA-MB-231 [1] is 0.3 µg/mL (≈ 0.927 µM).

With `C[C@@]12CC[C@@H]3[C@]4(CCC[C@]3(C)C(=O)OC4)[C@H]1CC[C@](C)(O)[C@H]2Cc1cc(O)ccc1O` [strongylophorine-8], the IC50 in the test on MDA-MB-231 [1] came to 7 µg/mL (≈ 16.3 µM). On to `COC1=CC(=O)C=C(C[C@H]2[C@]3(C)CC[C@@H]4[C@]5(CCC[C@]4(C)C(=O)OC5)[C@H]3CC[C@]2(C)O)C1=O` [strongylophorine-26], for which the result in the test on MDA-MB-231 [3] was Active. The IC50 in the test with MDA-MB-231 [1] stood at 1 µg/mL (≈ 2.19 µM).
